Data as given in patent US12303499B2, “Aqueous based pharmaceutical formulations of 1,2-dihydropyridine compounds” (Eisai R&D Management Co., Ltd., priority 2018, dated 2025).
Values after ≈ are worked out from the molar mass of the structure shown.

Columns and labels:
Type in all cases: physicochemical
[1] = Aqueous solubility of perampanel without solubilizer; details: water without solubilizer, aqueous buffer
Experimental: Perampanel has particularly poor water solubility. Perampanel has an aqueous solubility of about 0.001 mg/mL at pH 7 at ambient room temperature. Many attempts to solubilize perampanel in water have failed.
Perampanel is a basic drug that has poor water solubility. One source of perampanel is FYCOMPA, obtained from Eisai Co. Ltd., of Tokyo. […] Solubility studies investigated numerous different solubilizers ranging from organic cosolvents, surfactants, amino acids, complexing agents, and cyclodextrins. Further solubility studies were conducted as a function of pH with four selected solubilizers in the pH range 2 to 6. Solubility with all four solubilizers decreased as the pH was increased from 2 to 6. (See FIG. 2)

[2] = pH-solubility of perampanel in SBE-β-CD solutions; details: aqueous with cosolvent or surfactant or cyclodextrin
Experimental: Studies were conducted to determine the effect of Sulfobutyl Ether Beta Cyclodextrin (SBE-β-CD) concentration and pH on perampanel solubility. In one embodiment, the drug is solubilized at acidic pH in high concentration SBE-β-CD solutions, and then administered at neutral pH in low concentration SBE-β-CD solutions after dilution. The pH range studied for the formulation was 1.5 to 8.0 with a SBE-β-CD concentration range of 20% to 50%. For the diluted administration solution, the pH range studied was 6 to 8 with a SBE-β-CD concentration range of 3% to 9.5%.
In one embodiment, the drug product is administered after dilution with an IV fluid. The solubility of perampanel in SBE-β-CD was determined under diluted conditions in the neutral pH range. Perampanel concentrations after dilution can be as low as 0.08 mg/mL (8 mg in 100 mL) and as high as 0.24 mg/mL (12 mg in 50 mL).

[3] = Metastable zone width study (precipitation temperature on cooling); details: 40% SBE-β-CD, pH 7
Experimental: Meta-Stable Zone Width studies on SBE-β-CD based perampanel formulations containing varying concentrations of perampanel were performed to estimate the meta-stable zone for formulations containing 40% SBE-β-CD at pH 7. Lyophilization provides for long-term storage but requires reconstitution prior to use. When the lyophilized formulation is reconstituted, the solution is in a meta-stable supersaturated state. Meta-stable zone width analysis provides an estimate of how close a formulation is to the meta-stable state boundary.
Perampanel solutions of varying concentration were prepared in 40% SBE-β-CD at pH 7 and placed in a warm temperature controlled mixing vessel with a LASENTECH® probe to detect precipitation. Although those skilled in the art will recognize that formulations as stated in the prior examples may be prepared by a number of methods, the following method is used to prepare formulations at various perampanel concentrations in 40% SBE-β-CD, pH 7, liquid form, for the trials below. First, a SBE-β-CD solution at pH 1.8 is prepared by adding about 25 ml of water to a beaker, then adding about 20 g of SBE-β-CD. The SBE-β-CD has a water content of 4.7%, is 100% pure, and has a theoretical weight of 20 g/0.953, or 21.0 g. The SBE-β-CD is slowly added with mixing until it has dissolved. The volume is checked to ensure that it is not greater than 40 ml. pH of the solution is adjusted to pH 1.75 with 85% phosphoric acid.
The weight of perampanel used to prepared the desired concentration is then calculated by dividing 100 mg by the product of (1-[moisture content of perampanel/100]) and (anhydrous purity of perampanel/100). In some examples the moisture content is 3.7% and the anhydrous purity is 99.9%. The calculated amount of perampanel is added to the pH 1.75 solution, then mixed overnight at 40° C. The solution is filtered through a 20 μm filter at 40° C., then warmed to 40° C. At that temperature pH is adjusted to 7. Volume is adjusted to 50 mL with water and mixed.
The solutions were cooled at defined rates and the temperature at which precipitation occurred was recorded. The potency for each sample was measured by HPLC analysis. The precipitation temperature data were analyzed as per the method described by Sangwal, K. in Crystal Growth and Design, 9, 2 (2009) 942-950.
A plot of the precipitation temperature of perampanel from a 40% SBE-β-CD, pH 7 solution as a function of drug concentration (mg/mL) and cooling rate (deg C./hr) is provided in FIG. 8. A contour plot (see FIG. 9) and a 3-D plot (see FIG. 10) illustrating the relationship between cooling rate (deg/hr), perampanel concentration (mg/mL) and precipitation temperature were generated using the DESIGN-EXPERT® software, version 7.1.6. The DESIGN-EXPERT® model used the precipitation temperature, cooling rate, concentration and concentration terms to fit a surface to the data. The DESIGN-EXPERT® program was then able to extrapolate the precipitation temperature at zero cooling rate for different drug concentrations with 95% confidence intervals from the fit of the data.
This extrapolated data was used to prepare FIG. 11, which predicts the meta-stable zone boundary for perampanel in a 40% SBE-β-CD formulation at pH 7. Theoretically, if the drug concentration remains at or below the meta-stable zone boundary, then the drug should not precipitate from solution at the defined temperatures.

Molecule N#Cc1ccccc1-c1cc(-c2ccccn2)cn(-c2ccccc2)c1=O [perampanel, 2-(6′-oxo-1′-phenyl-1′,6′-dihydro[2,3′-bipyridin]-5′-yl)benzonitrile] has a solubility ([1]; 22° C., pH 2) of 30 µg/mL (≈ 85.9 µM), a solubility ([1]; 22° C., pH 7) of about 1 µg/mL (≈ 2.86 µM) and a solubility ([1]; pH 7, ambient room temperature) of about 1 µg/mL (≈ 2.86 µM). For the same molecule, the solubility ([2]; 3% SBE-β-CD solution, 3% SBE-β-CD, pH 5.5) was 20 µg/mL (≈ 57.2 µM), the solubility ([2]; 3% SBE-β-CD solution, 3% SBE-β-CD, pH 7) was 30 µg/mL (≈ 85.9 µM) and the solubility ([2]; 3% SBE-β-CD solution, 3% SBE-β-CD, pH 8) was 30 µg/mL (≈ 85.9 µM). For the same molecule, the solubility ([2]; 6% SBE-β-CD solution, 6% SBE-β-CD, pH 5.5) was 40 µg/mL (≈ 114 µM), the solubility ([2]; 6% SBE-β-CD solution, 6% SBE-β-CD, pH 7) was 30 µg/mL (≈ 85.9 µM) and the solubility ([2]; 6% SBE-β-CD solution, 6% SBE-β-CD, pH 8) was 60 µg/mL (≈ 172 µM). For the same molecule, the solubility ([2]; 9.5% SBE-β-CD solution, 9.5% SBE-β-CD, pH 5) was 80 µg/mL (≈ 229 µM), the solubility ([2]; 9.5% SBE-β-CD solution, 9.5% SBE-β-CD, pH 7) was 80 µg/mL (≈ 229 µM) and the “Ppt T” value ([3]; Exp MC2-102-148, cooling 3.00 deg C./hour, measured 1.99 mg/mL) was 21.6 deg C. For the same molecule, the “Ppt T” value ([3]; Exp MC2-102-149, cooling 1.00 deg C./hour, measured 1.64 mg/mL) was 31.6 deg C, the “Ppt T” value ([3]; Exp MC2-102-150, cooling 3.00 deg C./hour, measured 1.69 mg/mL) was 13.7 deg C and the “Ppt T” value ([3]; Exp MC2-102-151, cooling 6.00 deg C./hour, measured 1.63 mg/mL) was 11.3 deg C. For the same molecule, the “Ppt T” value ([3]; Exp MC2-102-153, cooling 6.00 deg C./hour, measured 1.81 mg/mL) was 12.6 deg C, the “Ppt T” value ([3]; Exp MC2-102-154, cooling 1.00 deg C./hour, measured 1.97 mg/mL) was 30.5 deg C and the “Ppt T” value ([3]; Exp MC2-102-155, cooling 2.00 deg C./hour, measured 1.68 mg/mL) was 12.2 deg C. The “Ppt T” value ([3]; Exp MC2-102-157, cooling 4.00 deg C./hour, measured 1.70 mg/mL) was 17.2 deg C, the “Ppt T” value ([3]; Exp MC2-102-159, cooling 2.00 deg C./hour, measured 1.39 mg/mL) was 6.4 deg C and the “Ppt T” value ([3]; Exp MC2-102-161, cooling 0.50 deg C./hour, measured 1.79 mg/mL) was 32.6 deg C. For the same molecule, the “Ppt T” value ([3]; Exp MC2-102-162, cooling 1.50 deg C./hour, measured 1.74 mg/mL) was 21.7 deg C, the “Ppt T” value ([3]; Exp MC2-102-163, cooling 0.75 deg C./hour, measured 1.51 mg/mL) was 20.3 deg C and the “Ppt T” value ([3]; Exp MC2-102-164, cooling 0.15 deg C./hour, measured 1.74 mg/mL) was 36.6 deg C. The “Ppt T” value ([3]; Exp MC2-102-165, cooling 0.30 deg C./hour, measured 1.80 mg/mL) was 34.8 deg C, the “Ppt T” value ([3]; Exp MC2-102-166, cooling 0.75 deg C./hour, measured 1.78 mg/mL) was 32.1 deg C and the “Ppt T” value ([3]; Exp MC2-102-168, cooling 1.00 deg C./hour, measured 1.52 mg/mL) was 9.5 deg C. For the same molecule, the “Ppt T” value ([3]; Exp MC2-102-169, cooling 0.50 deg C./hour, measured 1.43 mg/mL) was 29.5 deg C, the “Ppt T” value ([3]; Exp MC2-102-170, cooling 0.30 deg C./hour, measured 1.43 mg/mL) was 29.6 deg C and the “Ppt T” value ([3]; Exp MC2-102-172, cooling 0.15 deg C./hour, measured 1.53 mg/mL) was 33.3 deg C. For the same molecule, the “Ppt T” value ([3]; Exp MC2-102-174, cooling 0.40 deg C./hour, measured 1.51 mg/mL) was 30.9 deg C, the “Ppt T” value ([3]; Exp MC2-102-178, cooling 0.22 deg C./hour, measured 1.42 mg/mL) was 33.7 deg C and the “Ppt T” value ([3]; Exp MC2-102-181, cooling 0.10 deg C./hour, measured 1.46 mg/mL) was 33.5 deg C. For the same molecule, the “Ppt T” value ([3]; Exp MC2-102-182, cooling 0.22 deg C./hour, measured 1.77 mg/mL) was 35.5 deg C, the “Ppt T” value ([3]; Exp MC2-102-185, cooling 0.40 deg C./hour, measured 1.30 mg/mL) was 17.4 deg C and the “Ppt T” value ([3]; Exp MC2-102-187, cooling 0.30 deg C./hour, measured 1.10 mg/mL) was 10.2 deg C. For the same molecule, the “Ppt T” value ([3]; Exp MC2-102-192, cooling 0.20 deg C./hour, measured 1.21 mg/mL) was 22.9 deg C, the “Ppt T” value ([3]; Exp MC2-102-193, cooling 0.10 deg C./hour, measured 1.26 mg/mL) was 24.1 deg C and the “Ppt T” value ([3]; Exp MC2-102-197, cooling 0.40 deg C./hour, measured 1.06 mg/mL) was 2.6 deg C. The “Ppt T” value ([3]; Exp MC2-1108-001, cooling 0.40 deg C./hour, measured 0.97 mg/mL) was 12.8 deg C.
